# Target: SMARCA2 (Homo sapiens (Human), UniProt P51531)
# Assay: SMARCA2 HiBiT degradation assay in HEK293T cells
# Type: cell-based
# Details: 293T HiBiT assay, 24 h; for DC50: read-out: DC50 (SM2-293T) SMARCA2 degradation potency; for Dmax: HEK-293T, read-out: Dmax % (SM2-293T) maximum SMARCA2 degradation within the concentrations tested
# Method: HiBiT peptide knock-in of SMARCA2 in LgBiT expressing HEK293T cells was performed by CRISPR-mediated tagging system as described Promega. The homozygous HiBiT knock-in on c-terminus SMARCA2 was confirmed by sanger sequence. SMARCA2-HiBiT knock-in Hela monoclonal cell (CS302366) and SMARCA4-HiBiT knock-in Hela monoclonal cell (CS3023226) were purchased from Promega. The heterozygous HiBiT-knock-in was confirmed by sanger sequence in both SMARCA2-HiBiT and SMARCA4-HiBiT monoclonal cells. Compounds were prepared in a low dead volume plate at 3-fold serial dilution, and then transferred 25 nL/well into a 384 well plate (Corning: #356661) by Agilent Bravo liquid dispenser. SMARCA2-HiBiT monoclonal HEK293T cells were added at 5,000/well/25 uL into the compound containing 384 well plate. After 24 h incubation, 25 uL/well of Nano-Glo HiBiT Lytic detection buffer (Promega: N3050) was added to the wells and incubate for 10 min on a shaker, centrifuged for 5 min, and then RLU was detected on a microplate reader (Envision, PerkinElmer). The RLU ratio values are normalized to percent inhibition as follows: % inhibition=((HC−LC)−(compound−LC))/(HC−LC))*100, where HC=high control=mean signal of DMSO only; LC=low control=mean signal of 100% inhibition of RLU by 1 μM PRT1001728. An 11-point dose response curve for each compound will be generated using normalized % inhibition to determine IC50 values based on the equation: Y=Bottom+((Top-Bottom)/(1+((IC50/X)^Slope))), where Y is the % inhibition in the presence of X inhibitor concentration; Top=the top plateau of the curve; Bottom=the bottom plateau of the curve; Slope=Hill coefficient; DC50=concentration of compound with 50% degradation in relation to top/high control. DC50 values were determined by using XLfit Model 205.
# Sequence of SMARCA2 (P51531 whole entry): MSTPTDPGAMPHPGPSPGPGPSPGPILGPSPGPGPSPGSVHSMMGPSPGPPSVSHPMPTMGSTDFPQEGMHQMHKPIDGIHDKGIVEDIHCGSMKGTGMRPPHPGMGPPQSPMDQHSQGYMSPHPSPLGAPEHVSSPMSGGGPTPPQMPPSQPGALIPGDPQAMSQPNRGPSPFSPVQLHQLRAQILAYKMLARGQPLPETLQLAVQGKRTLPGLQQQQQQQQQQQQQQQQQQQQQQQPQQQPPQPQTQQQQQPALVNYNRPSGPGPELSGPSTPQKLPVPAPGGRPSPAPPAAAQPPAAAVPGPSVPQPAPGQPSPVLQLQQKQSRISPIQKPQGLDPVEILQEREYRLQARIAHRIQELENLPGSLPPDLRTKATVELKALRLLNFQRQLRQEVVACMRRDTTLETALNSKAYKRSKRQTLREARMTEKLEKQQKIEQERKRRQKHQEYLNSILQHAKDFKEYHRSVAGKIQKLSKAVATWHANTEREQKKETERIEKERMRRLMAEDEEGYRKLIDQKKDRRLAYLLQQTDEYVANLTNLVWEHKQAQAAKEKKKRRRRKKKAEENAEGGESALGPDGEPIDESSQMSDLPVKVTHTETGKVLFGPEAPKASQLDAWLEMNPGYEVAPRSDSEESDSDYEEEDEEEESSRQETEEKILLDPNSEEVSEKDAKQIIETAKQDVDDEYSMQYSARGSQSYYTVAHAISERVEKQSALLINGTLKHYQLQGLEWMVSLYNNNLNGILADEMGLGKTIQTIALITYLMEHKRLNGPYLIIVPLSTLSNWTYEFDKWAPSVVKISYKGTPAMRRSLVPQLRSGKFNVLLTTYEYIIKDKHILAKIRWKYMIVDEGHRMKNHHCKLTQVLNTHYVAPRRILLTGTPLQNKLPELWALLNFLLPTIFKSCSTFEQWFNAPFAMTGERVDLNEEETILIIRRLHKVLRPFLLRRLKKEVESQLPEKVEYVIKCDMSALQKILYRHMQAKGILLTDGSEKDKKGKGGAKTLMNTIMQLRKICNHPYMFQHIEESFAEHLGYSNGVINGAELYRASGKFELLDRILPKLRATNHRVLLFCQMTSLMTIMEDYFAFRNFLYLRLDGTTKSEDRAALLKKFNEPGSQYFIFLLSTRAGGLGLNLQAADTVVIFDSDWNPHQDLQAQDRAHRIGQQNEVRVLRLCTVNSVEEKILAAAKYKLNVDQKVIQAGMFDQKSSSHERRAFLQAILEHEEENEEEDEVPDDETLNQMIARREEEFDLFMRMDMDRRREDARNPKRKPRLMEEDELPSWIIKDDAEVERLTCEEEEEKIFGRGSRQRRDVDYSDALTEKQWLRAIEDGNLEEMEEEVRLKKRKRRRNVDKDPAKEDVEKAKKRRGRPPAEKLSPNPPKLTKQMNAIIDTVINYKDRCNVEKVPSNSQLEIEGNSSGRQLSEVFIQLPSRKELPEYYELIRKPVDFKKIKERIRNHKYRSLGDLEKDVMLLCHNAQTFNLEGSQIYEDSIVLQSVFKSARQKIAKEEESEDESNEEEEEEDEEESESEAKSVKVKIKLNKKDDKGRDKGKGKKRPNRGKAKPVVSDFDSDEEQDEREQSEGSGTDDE
SMILES,DC50 [nM],Dmax [%]
"Cc1ncsc1-c1ccc([C@H](C)NC(=O)[C@@H]2C[C@@H](O)CN2C(=O)[C@H](NC(=O)OCCN2CCN3c4cc(-c5ccccc5O)nnc4NCC3C2)C(C)(C)C)cc1 (stereo partly drawn) [Example 7, 2-(2-(2-hydroxyphenyl)-5,6,6a,7,9,10-hexahydro-8H-pyrazino[1′,2′:4,5]pyrazino[2,3-c]pyridazin-8-yl)ethyl ((R)-1-((2S,4R)-4-hydroxy-2-(((S)-1-(4-(4-methylthiazol-5-yl)phenyl)ethyl)carbamoyl)pyrrolidin-1-yl)-3,3-dimethyl-1-oxobutan-2-yl)carbamate]",100 to 1000,> 75
"Cc1ncsc1-c1ccc([C@H](C)NC(=O)[C@@H]2C[C@@H](O)CN2C(=O)[C@@H](c2cc(OCCN3CCC(CN4CCN5c6cc(-c7ccccc7O)nnc6NC[C@H]5C4)C3)no2)C(C)C)cc1 (stereo partly drawn) [Example 15, (2S,4R)-4-hydroxy-1-((2R)-2-(3-(2-(3-(((S)-2-(2-hydroxyphenyl)-5,6,6a,7,9,10-hexahydro-8H-pyrazino[1′,2′:4,5]pyrazino[2,3-c]pyridazin-8-yl)methyl)pyrrolidin-1-yl)ethoxy)isoxazol-5-yl)-3-methylbutanoyl)-N-((S)-1-(4-(4-methylthiazol-5-yl)phenyl)ethyl)pyrrolidine-2-carboxamide]",< 100,> 75
"Cc1ncsc1-c1ccc([C@H](C)NC(=O)[C@@H]2C[C@@H](O)CN2C(=O)[C@@H](c2cc(OC(C)CN3CCC(N4CCN5c6cc(-c7ccccc7O)nnc6NC[C@H]5C4)CC3)no2)C(C)C)cc1 (stereo partly drawn) [Example 17, (2S,4R)-4-hydroxy-1-((2R)-2-(3-((1-(4-((S)-2-(2-hydroxyphenyl)-5,6,6a,7,9,10-hexahydro-8H-pyrazino[1′,2′:4,5]pyrazino[2,3-c]pyridazin-8-yl)piperidin-1-yl)propan-2-yl)oxy)isoxazol-5-yl)-3-methylbutanoyl)-N-((S)-1-(4-(4-methylthiazol-5-yl)phenyl)ethyl)pyrrolidine-2-carboxamide]",< 100,> 75
"Cc1ncsc1-c1ccc([C@H](C)NC(=O)[C@@H]2C[C@@H](O)CN2C(=O)[C@@H](c2cc(CCN3CCC(N4CCN5c6cc(-c7ccccc7O)nnc6NC[C@H]5C4)CC3)no2)C(C)C)cc1 [Example 91, (2S,4R)-4-hydroxy-1-((R)-2-(3-(2-(4-((S)-2-(2-hydroxyphenyl)-5,6,6a,7,9,10-hexahydro-8H-pyrazino[1′,2′:4,5]pyrazino[2,3-c]pyridazin-8-yl)piperidin-1-yl)ethyl)isoxazol-5-yl)-3-methylbutanoyl)-N-((S)-1-(4-(4-methylthiazol-5-yl)phenyl)ethyl)pyrrolidine-2-carboxamide]",< 100,> 75
"Cc1ncsc1-c1ccc([C@H](C)NC(=O)[C@@H]2C[C@@H](O)CN2C(=O)[C@@H](c2cc(OC(C)CN3CCCC(CN4CCN5c6cc(-c7ccccc7O)nnc6NC[C@H]5C4)C3)no2)C(C)C)cc1 (stereo partly drawn) [Example 24, (2S,4R)-4-hydroxy-1-((2R)-2-(3-((1-(3-(((S)-2-(2-hydroxyphenyl)-5,6,6a,7,9,10-hexahydro-8H-pyrazino[1′,2′:4,5]pyrazino[2,3-c]pyridazin-8-yl)methyl)piperidin-1-yl)propan-2-yl)oxy)isoxazol-5-yl)-3-methylbutanoyl)-N-((S)-1-(4-(4-methylthiazol-5-yl)phenyl)ethyl)pyrrolidine-2-carboxamide]",< 100,–

# The next lines start with the values.
DC50 [nM],Dmax [%],SMILES
< 100,> 75,"Cc1ncsc1-c1ccc([C@H](C)NC(=O)[C@@H]2C[C@@H](O)CN2C(=O)[C@@H](c2cc(OC3CCN(CCCN4CCN5c6cc(-c7ccccc7O)nnc6NC[C@H]5C4)C3)no2)C(C)C)cc1 (stereo partly drawn) [Example 83, (2S,4R)-4-hydroxy-1-((2R)-2-(3-((1-(3-((S)-2-(2-hydroxyphenyl)-5,6,6a,7,9,10-hexahydro-8H-pyrazino[1′,2′:4,5]pyrazino[2,3-c]pyridazin-8-yl)propyl)pyrrolidin-3-yl)oxy)isoxazol-5-yl)-3-methylbutanoyl)N-((S)-1-(4-(4-methylthiazol-5-yl)phenyl)ethyl)pyrrolidine-2-carboxamide]"
< 100,> 75,"Cc1ncsc1-c1ccc([C@H](C)NC(=O)[C@@H]2C[C@@H](O)CN2C(=O)[C@@H](c2cc(OCCN3CCC(N4CCN5c6cc(-c7ccccc7O)nnc6NC[C@H]5C4)C3)no2)C(C)C)cc1 (single isomer, unassigned) [Example 19]"
< 100,> 75,"Cc1ncsc1-c1ccc([C@H](C)NC(=O)[C@@H]2C[C@@H](O)CN2C(=O)[C@@H](NC(=O)CN2CCC(N3CCN4c5cc(-c6ccccc6O)nnc5NC[C@H]4C3)CC2)C(C)(C)C)cc1 [Example 11, (2S,4R)-4-hydroxy-1-((S)-2-(2-(4-((S)-2-(2-hydroxyphenyl)-5,6,6a,7,9,10-hexahydro-8H-pyrazino[1′,2′:4,5]pyrazino[2,3-c]pyridazin-8-yl)piperidin-1-yl)acetamido)-3,3-dimethylbutanoyl)-N-((S)-1-(4-(4-methylthiazol-5-yl)phenyl)ethyl)pyrrolidine-2-carboxamide]"
< 100,> 75,"Cc1ncsc1-c1ccc([C@H](C)NC(=O)[C@@H]2C[C@@H](O)CN2C(=O)[C@@H](NC(=O)CN2CCC(N3CCN4c5cc(-c6ccccc6O)nnc5NC[C@@H]4C3)CC2)C(C)(C)C)cc1 [Example 79, (2S,4R)-4-hydroxy-1-((S)-2-(2-(4-((R)-2-(2-hydroxyphenyl)-5,6,6a,7,9,10-hexahydro-8H-pyrazino[1′,2′:4,5]pyrazino[2,3-c]pyridazin-8-yl)piperidin-1-yl)acetamido)-3,3-dimethylbutanoyl)-N-((S)-1-(4-(4-methylthiazol-5-yl)phenyl)ethyl)pyrrolidine-2-carboxamide]"
< 100,> 75,"Cc1ncsc1-c1ccc([C@H](C)NC(=O)[C@@H]2C[C@@H](O)CN2C(=O)[C@@H](c2cc(OCCN3CCCC(CN4CCN5c6cc(-c7ccccc7O)nnc6NC[C@H]5C4)C3)no2)C(C)C)cc1 (single isomer, unassigned) [Example 85]"
< 100,–,"Cc1ncsc1-c1ccc([C@H](C)NC(=O)[C@@H]2C[C@@H](O)CN2C(=O)[C@@H](c2cc(CCCN3CCCC(CN4CCN5c6cc(-c7ccccc7O)nnc6NC[C@H]5C4)C3)no2)C(C)C)cc1 (single isomer, unassigned) [Example 89]"
< 100,> 75,"Cc1ncsc1-c1ccc([C@H](C)NC(=O)[C@@H]2C[C@@H](O)CN2C(=O)[C@@H](NC(=O)C2CN(CCCN3CCN4c5cc(-c6ccccc6O)nnc5NCC4C3)C2)C(C)(C)C)cc1 (stereo partly drawn) [Example 82, (2S,4R)-4-hydroxy-1-((2S)-2-(1-(3-(2-(2-hydroxyphenyl)-5,6,6a,7,9,10-hexahydro-8H-pyrazino[1′,2′:4,5]pyrazino[2,3-c]pyridazin-8-yl)propyl)azetidine-3-carboxamido)-3,3-dimethylbutanoyl)N-((S)-1-(4-(4-methylthiazol-5-yl)phenyl)ethyl)pyrrolidine-2-carboxamide]"
< 100,> 75,"Cc1ncsc1-c1ccc([C@H](C)NC(=O)[C@@H]2C[C@@H](O)CN2C(=O)[C@@H](c2cc(OCC(=O)N3CCC(N4CCN5c6cc(-c7ccccc7O)nnc6NC[C@H]5C4)C(C)C3)no2)C(C)C)cc1 (single isomer, unassigned) [Example 31]"
